According to patent US20170290820A1, “METHODS AND COMPOSITIONS FOR TREATING BETA-THALASSEMIA AND SICKLE CELL DISEASE” (Academia Sinica, priority 2013, published 2017):

How the values were obtained:
[1] = test system: ε globin; assay: absolute quantitative RT-PCR, proportion of ε globin mRNA; type: cell-based; details: primary human erythroid cells, at IC50, 3 days; mock 0.0%
Method: (§1) After 3 days of drug-treatment, the total RNA was extracted by RNA Spin mini kit (Ge-Healthcare) and reverse-transcription was performed by using superscript II (Invitrogen) followed the manufactors instruction. Quantitative PCR was performed on LightCycler with using STBR green master mix followed the manufactors instruction (Roche). The absolute quantitative RT-PCR was calculated by the standard curve with supplying a known copy number of plasmids. The relative quantitative RT-PCR was normalized to the expression levels of the β-actin and compared to the mock control.
(§2) To evaluate the specificity of S51021, SS-2394, HU, and NaB in mediating globin genes activation, the amounts of individual P3-liked globin mRNAs were measured by absolute quantitative RT-PCR.
(§3) The primary human erythroid cells were treated with HU (145.9 μM), NaB (221.6 μM), S51021 (21.8 μM) or SS2394 (2.3 μM) for 3 days, and the expression levels of each globin mRNA were estimated by absolute quantitative RT-PCR analysis. The proportions of individual 3-like globin chains among the total 3-like globin mRNA are shown. Data are presented as the mean±SEM, N=3.

[2] = test system: β globin; assay: absolute quantitative RT-PCR, proportion of β globin mRNA; type: cell-based; details: primary human erythroid cells, at IC50, 3 days; mock 88.8%
Method: as §1, §2, §3

[3] = test system: δ globin; assay: absolute quantitative RT-PCR, proportion of δ globin mRNA; type: cell-based; details: primary human erythroid cells, at IC50, 3 days; mock 3.3%
Method: as §1, §2, §3

[4] = test system: NF-E4; assay: NF-E4 mRNA level by relative quantitative RT-PCR; type: cell-based, human; details: FIG. 4A; at IC50, 3 days, relative to mock
Method: FIGS. 4A-4D are graphs showing the expression profiles of the γ globin gene and HbF-related regulators after compounds treatment in the primary human erthroid cells. […] Data are presented as the relative expression level in mean±SEM, N=8. […] Upper panel: For detection of the induction level of γ globin, fifty microgram of total cell lysate was analyzed by western blot analysis using antibody against γ globin, or β-actin. Lower panel: The signal intensity was quantified by an image-analyzing software. The intensity of γ globin expression levels of mock control was set as 1. Data are shown as the mean±SEM, N=5. […] Lower panel: The signal was quantified by an image-analyzing software. […] Total RNA was extracted, and the expression level of γ globin gene was analyzed by relative quantitative RT-PCR. […]
as §1, with “control. […]” for “control.”

[5] = test system: histone H4; assay: histone H4 acetylation by western blot; type: cell-based, human; details: FIG. 6; for global acetylation status of histone H4 (total acH4): at IC50, 3 days
Description: FIG. 6 is a graph showing the acetylation status of histone H4 in primary erythroid cells treating with HU, NaB, S51021 or SS-2394. […] Total histones were extracted by histone extraction buffer. Thirty microgram of histone extract was used for western blot analysis and immunobloted with antibody against histone H4 or acetylated histone H4. Lower panel: The signal intensity was quantified by an image-analyzing software. The intensity of mock control was set as 1. Data are shown as the mean±SEM, N=4.
After 3 days of compound treatment, total protein or histone of the drug-treated cells was extracted. Histone was extracted by histone extraction buffer (10 mM HEPES, 1.5 mM MgCl2, 10 mM KCl, 0.5 mM DTT, 1.5 mM PMSF and 0.2 N HCl) at 4° C. overnight then centrifuged at 13,000 rpm for 5 minutes and collected the supernatant. Thirty microgram of histone extracts were separated in 15% SDS-PAGE and blotted onto PVDF membrane. After blocking with 5% non-fat milk in TBST, the membrane was then incubated with primary antibody against total histone H4 or total acetyl histone H4 at 4° C. overnight. Total protein was extracted by modified RIPA (50 mM Tris-HCl pH7.8, 150 mM NaCl, 1% NP-40, 0.5% sodium deoxycholate, 0.1% SDS, 1 mM EGTA, 5 mM EDTA, 10 mM NaF, 1 mM NaV3O4 and 1× complete, EDTA-free Protease Inhibitor Cocktail). Thirty microgram of total protein extracts were separate by 10% SDS-PAGE and blotted onto PVDF membrane. After blocking with 5% non-fat milk in TBST, the membrane was incubated with primary antibody against BCL11A, p38, p-p38, γ-globin or β-actin at 4° C. overnight. […]
Several HDACi, such as NaB, apicidin, and TSA, have been reported to function as HbF-inducing agents. […] To realize whether the epigenetic modification of histone H4 is manipulated by S51021 or SS-2394 treatment, primary human adult erythroid cells were treated with S51021, SS-2394, HU, or NaB for 3 days, and the acetylation status of cellular histone H4 was then analyzed (FIG. 6).

Row | Compound | ε globin proportion of total β-like globin mRNA [1] [%] | β globin proportion of total β-like globin mRNA [2] [%] | δ globin proportion of total β-like globin mRNA [3] [%] | expression level of NF-E4 [4] [folds] | histone deacetylase inhibitor or not (conclusion from acH4) [5] | global acetylation status of histone H4 (total acH4) [5]
1 | NC(=O)NO [HU, hydroxyurea] | 0.1 ± 0.0 | 84.2 ± 1.3 | 4.5 ± 0.2 | 0.6 | not histone deacetylase inhibitors | not dramatically alternated
2 | CCCC(=O)[O-].[Na+] [NaB, sodium butyrate] | 0.1 ± 0.0 | 87.4 ± 1.0 | 1.8 ± 0.1 | 0.6 |  | significantly enhanced
